The target in one experiment is monoclonal antibody DD-1. The experiment is described as follows: Competition ELISA with monoclonal antibody DD-1. The settings on record: competitor vs monoclonal antibody DD-1; plate coated with A-triCDD-RSA. Type of experiment: binding, Biozzi mice. As to the method: (§1) In this case the hybridomas were then screened for their ability to distinguish A-triCDD-BSA and A-triCDD-RSA from BSA and RSA. On the basis of this initial screen about 25 stable, antibody-producing colonies were isolated, subcloned, and frozen. The remaining clones were again screened for their abilities to recognize free TCDD in suspension. Experimentally, on the order of 10-100 nanograms of TCDD in hexane was dried, 0.5 ml of saline with BSA (1 mg/ml) was added and sonificated for 2 hrs. […] Identical procedures were followed for other dioxin isomers. A dilution series in microtiter plate wells was then made with the suspended TCDD, antibody adde, and the competition ELISA completed. Competition ELISA test procedures are discussed in detail in the following reference: Butt, W. R. (1984) "Practical Immunoassay: The State of the Art", Marcel Dekker, Inc., N.Y., N.Y.
(§2) A large part of the success that we have had in characterizing the binding specificities of our monoclonal antibodies comes from having developed a reliable competition ELISA protocol. Our preferred assay starts from stock solutions at 10 ppm in hexane of the various compounds listed in Table I. 10 μl of hexane solution is aliquoted into a small vial, evaporated under a stream of nitrogen gas, and 500 μl of a 1 mg/ml solution of BSA in phosphate buffered saline with 0.1% BSA is added. The vial is capped and placed in an ultrasonic cleaning waterbath for two hours. Two hours of sonification gives a more reproducible assay than does an hour. During the sonification, the hexane appears to evaporate completely, and one is left with an aqueous solution containing the dioxin. Microtiter plates coated with A-triCDD-RSA are blocked with a three percent solution of ovalbumin and a two-fold dilution series of sonificated dioxin-BSA is then made, covering the range 100 ppb-0.1 ppb. In each well of the plate 100 μl of the sonificated dioxin-BSA solution is mixed with n equal volume of antibody. The antibody partitions between the dioxin adsorbed to the BSA, and the A-tri-CDD-RSA on the plate.
(§3) A-TriCDD-RSA was adsorbed onto the surface of the wells of a microtiter plate. The various competitors listed were suspended in saline containing bovine serum albumin (BSA). These solutions were made by sonificating 10 μl of dioxin solution in hexane with 500 μl of saline-BSA. A dilution series of these dioxin-BSA solutions was then made covering the range of 100-0.2 ppb, and placed in the microtiter plate wells. An equal volume of DD-1 monoclonal antibody was then added, and allowed to react for 1 hour. Tne antibody binds either to the A-TriCDD-RSA on the plate or the dioxin in solution. After the hour, the solution phase is removed, the plate washed, and it is reincubated for an hour with peroxidase-conjugated goat-anti-mouse-immunoglobulins. A second washing is then done, and substrate (ABTS) added to the peroxidase. The enzyme-antibody conjugate and substrate function as a "developer", allowing the visualization of the DD-1 bound to the A-triCDD-RSA on the plate. Results are then expressed as a fraction of the response in wells with no competitor. […] At about 20 ppb of 2,3,7,8-TCDD the relative ELISA response is half of control, meaning that half the DD-1 antibody bound to the solution phase dioxin and half bound to the A-triCDD-RSA on the plate. For 1,2,3,7(8)-TCDD, 50% inhibition occurs at about 4 ppb, indicating the DD-1 prefers 1,2,3,7(8)-TCDD to 2,3,7,8-TCDD.
(§4) The FIGURE and Table II show representative competition data using several chlorinated compounds as competitors. From such data, one can determine the concentration required to inhibit antibody binding by 50% (I50). Table II lists the I50 for all compounds tested with the antibodies. In reporting these values, factors of two are about the limit of significance. […] The binding specificities of these antibodies are highly desirable, since they prefer the most toxic of the dioxin and dibenzofuran isomers.
On the technique in general: ELISA stands for enzyme-linked immunosorbent assay.

A further experiment has as its target monoclonal antibody DD-3. The experiment is described as follows: Competition ELISA with monoclonal antibody DD-3. Type of experiment: binding, BALB/c mice. As to conditions: competitor vs monoclonal antibody DD-3; plate coated with A-triCDD-RSA. Here is the method:
as §1, §2, §3, §4

The target of another experiment is monoclonal antibody DD-4. The experiment is described as follows: Competition ELISA with monoclonal antibody DD-4. Type of experiment: binding, BALB/c mice. The settings on record: competitor vs monoclonal antibody DD-4; plate coated with A-triCDD-RSA. Here is the method: as §1, §2, §3, §4
The target of a further experiment is monoclonal antibody DD-5. In words: Competition ELISA with monoclonal antibody DD-5. Type of experiment: binding, Biozzi mice. As to conditions: competitor vs monoclonal antibody DD-5; plate coated with A-triCDD-RSA. Here is the method: as §1, §2, §3, §4
The target in the next experiment is monoclonal antibody DD-6. The experiment is described as follows: Competition ELISA with monoclonal antibody DD-6. The settings on record: competitor vs monoclonal antibody DD-6; plate coated with A-triCDD-RSA. Type of experiment: binding, Biozzi mice. As to the method:
as §1, §2, §3, §4

Where only a bound is given, the exact number is not on record here.

`Clc1ccccc1-c1cc(Cl)c(Cl)c(Cl)c1Cl` [2,2',3,4,5-Penta-CBP]: the “I50 (inhibits antibody binding by 50%)” value at monoclonal antibody DD-1 is given as more than 200 ng; on monoclonal antibody DD-3, more than 200 ng; at monoclonal antibody DD-4 it was more than 200 ng; at monoclonal antibody DD-5, more than 10 ng; on monoclonal antibody DD-6, more than 200 ng.

For the molecule `Clc1ccc(-c2ccc(Cl)c(Cl)c2)cc1Cl` [3,3',4,4'-TCBP], the “I50 (inhibits antibody binding by 50%)” value is listed as more than 200 ng at monoclonal antibody DD-1; more than 200 ng at monoclonal antibody DD-3; more than 200 ng at monoclonal antibody DD-4; more than 10 ng on monoclonal antibody DD-5; 100 ng on monoclonal antibody DD-6.

Consider `ClC1=C(Cl)C2(Cl)C3C(Cl)C(Cl)CC3C1(Cl)C2(Cl)Cl` (stereo not drawn) [Chlordane], for which the “I50 (inhibits antibody binding by 50%)” value at monoclonal antibody DD-1, at monoclonal antibody DD-3, at monoclonal antibody DD-4, at monoclonal antibody DD-5 and at monoclonal antibody DD-6 was more than 2000 ng each time.

As to `Clc1ccc(-c2cc(Cl)c(Cl)c(Cl)c2Cl)c(Cl)c1` [2,2',3,4,4',5-Hexa-CBP], the “I50 (inhibits antibody binding by 50%)” value on monoclonal antibody DD-1 was more than 200 ng; on monoclonal antibody DD-3, more than 200 ng; on monoclonal antibody DD-4, more than 200 ng; on monoclonal antibody DD-5, more than 10 ng; on monoclonal antibody DD-6, more than 200 ng.

For the molecule `Nc1c(Cl)ccc2c1Oc1cc(Cl)c(Cl)cc1O2` [1-amino-2,7,8-TriCDD], the “I50 (inhibits antibody binding by 50%)” value at monoclonal antibody DD-1 is 0.2 ng; on monoclonal antibody DD-3, more than 0.04 ng; on monoclonal antibody DD-4, more than 0.01 ng; on monoclonal antibody DD-5 it was more than 0.02 ng; on monoclonal antibody DD-6 it was 0.02 ng.

For the molecule `ClC1=C(Cl)C2(Cl)C3C4CC(C5OC45)C3C1(Cl)C2(Cl)Cl` (stereo not drawn) [Endrin], the “I50 (inhibits antibody binding by 50%)” value at monoclonal antibody DD-1, at monoclonal antibody DD-3, on monoclonal antibody DD-4, at monoclonal antibody DD-5 and at monoclonal antibody DD-6 was more than 2000 ng each time.

Turning to `O=[N+]([O-])c1c(Cl)ccc2c1Oc1cc(Cl)c(Cl)cc1O2` [1-nitro-2,7,8-TriCDD], the “I50 (inhibits antibody binding by 50%)” value was 0 ng at monoclonal antibody DD-1, 0.15 ng at monoclonal antibody DD-3, 0.02 ng at monoclonal antibody DD-4 and more than 0.004 ng at monoclonal antibody DD-6.

Turning to `OCC(Cl)(Cl)Cl` [2,2,2-Tricholoroethanol, 2,2,2-Tricholoro-ethanol], the “I50 (inhibits antibody binding by 50%)” value at monoclonal antibody DD-1, at monoclonal antibody DD-3, on monoclonal antibody DD-4, on monoclonal antibody DD-5 and at monoclonal antibody DD-6 was more than 2000 ng throughout.

In the case of `Brc1cc2c(cc1Br)Oc1cc(Br)c(Br)cc1O2` [2,3,7,8-tetra-Bromo-DD], the “I50 (inhibits antibody binding by 50%)” value is given as 0.05 ng at monoclonal antibody DD-1, 1 ng at monoclonal antibody DD-3, 1 ng at monoclonal antibody DD-4 and more than 2 ng on monoclonal antibody DD-6.

`Clc1ccccc1` [Chlorobenzene]: the “I50 (inhibits antibody binding by 50%)” value on monoclonal antibody DD-1, at monoclonal antibody DD-3, at monoclonal antibody DD-4, on monoclonal antibody DD-5 and on monoclonal antibody DD-6 was more than 2000 ng in each case.

As to `O=C(O)COc1ccc(Cl)cc1Cl` [2,4-Dichlorophenoxyacetic, 2,4-Dichlorophenoxy-acetic], the “I50 (inhibits antibody binding by 50%)” value on monoclonal antibody DD-1, at monoclonal antibody DD-3 and at monoclonal antibody DD-4 was more than 2000 ng in each case.

On to `ClC1C(Cl)C(Cl)C(Cl)C(Cl)C1Cl` (stereo not drawn) [BHC], for which the “I50 (inhibits antibody binding by 50%)” value is reported as 300 ng on monoclonal antibody DD-1; more than 2000 ng at monoclonal antibody DD-3; more than 2000 ng on monoclonal antibody DD-4; more than 2000 ng on monoclonal antibody DD-5; more than 2000 ng on monoclonal antibody DD-6.

In the case of `Clc1cc(Cl)c(-c2ccccc2Cl)c(Cl)c1` [2,2',4,6-TCBP], the “I50 (inhibits antibody binding by 50%)” value on monoclonal antibody DD-1 was more than 200 ng; at monoclonal antibody DD-3, more than 200 ng; at monoclonal antibody DD-4, more than 200 ng; at monoclonal antibody DD-5, more than 10 ng; at monoclonal antibody DD-6 it was more than 200 ng.

Turning to `Clc1cc2c(cc1Cl)Oc1c(cc(Cl)c(Cl)c1Cl)O2` [1,2,3,7,8-penta-CDD], the “I50 (inhibits antibody binding by 50%)” value is on record as 0.2 ng on monoclonal antibody DD-1, 0.15 ng at monoclonal antibody DD-3, 0.02 ng at monoclonal antibody DD-4 and more than 0.004 ng on monoclonal antibody DD-6.

Turning to `Clc1ccc(-c2c(Cl)cc(Cl)c(Cl)c2Cl)c(Cl)c1Cl` [2,2',3,3',4,4',6-Hepta-CBP], the “I50 (inhibits antibody binding by 50%)” value at monoclonal antibody DD-1 is reported as more than 200 ng; at monoclonal antibody DD-3, more than 200 ng; at monoclonal antibody DD-4, more than 200 ng; at monoclonal antibody DD-5, more than 10 ng; at monoclonal antibody DD-6, more than 200 ng.

Take `Clc1cc(Cl)c2c(c1Cl)Oc1ccccc1O2` [1,2,4-Tri-CDD]: the “I50 (inhibits antibody binding by 50%)” value was more than 200 ng on monoclonal antibody DD-1; more than 200 ng on monoclonal antibody DD-3; more than 200 ng at monoclonal antibody DD-4; more than 10 ng on monoclonal antibody DD-5; more than 200 ng at monoclonal antibody DD-6.

As for `O=[N+]([O-])c1cc(Cl)ccc1Cl` [2,5-Dichloronitrobenzene, 2,5-Dichloronitro-benzene], the “I50 (inhibits antibody binding by 50%)” value is 90 ng on monoclonal antibody DD-1; 2000 ng at monoclonal antibody DD-3; more than 2000 ng on monoclonal antibody DD-4; 2000 ng on monoclonal antibody DD-5; 700 ng on monoclonal antibody DD-6.

Turning to `Oc1cc(Cl)c(Cl)cc1Cl` [2,4,5-Trichlorophonol], the “I50 (inhibits antibody binding by 50%)” value was 800 ng at monoclonal antibody DD-1; more than 2000 ng on monoclonal antibody DD-3; more than 2000 ng at monoclonal antibody DD-4; more than 2000 ng at monoclonal antibody DD-5; more than 2000 ng on monoclonal antibody DD-6.

Take Toxaphene: the “I50 (inhibits antibody binding by 50%)” value at monoclonal antibody DD-3, on monoclonal antibody DD-4, at monoclonal antibody DD-5 and at monoclonal antibody DD-6 was more than 2000 ng throughout.

`Clc1ccc2c(c1)Oc1c(Cl)c(Cl)c(Cl)c(Cl)c1O2` [1,2,3,4,7-penta-CDD]: the “I50 (inhibits antibody binding by 50%)” value at monoclonal antibody DD-1, at monoclonal antibody DD-3, at monoclonal antibody DD-4 and on monoclonal antibody DD-6 was more than 2 ng in each case.

The values above are taken from patent US4798807A, “Monoclonal antibodies and method for detecting dioxins and dibenzofurans” (priority 1986, dated 1989).
